Results: US20150140015A1, “METHODS AND PHARMACEUTICAL COMPOSITIONS FOR THE TREATMENT OF PANCREATIC CANCER” (INSERM (Institut National de la Sante et de la Recherche …, priority 2013, published 2015)

How the values were obtained:
parental HPAF-II cells = assay: Quantification of apoptotic cells by annexin V-PE labeling in parental HPAF-II cells; type: cell-based, human; conditions: 1 μM orexin-A
Protocol: FIGS. 5A and B. Effect of orexin-A on apoptosis in OX1R expressing recombinant OX1R/HPAF-II cells. A, Parental HPAF-II and recombinant OX1R/HPAF-II cells were challenged with (black bars) or without (white bars) 1 μM orexin-A for 48 hr in the absence or presence of the SHP-2 protein tyrosine phosphatase inhibitor, NSC-87877 (50 μM). Apoptosis was measured by determination of annexin V-PE binding. Results are expressed as the percentage of apoptotic cells, and are the means±SE of three separate experiments. ***p<0.001; ns, non-significant; B, paraformaldehyde-fixed HPAF-II cells and recombinant OX1R/HPAF-II cells were challenged with or without (Basal) 1 μM orexin-A for 48 hr. Indirect immunostaining of activated caspase-3 in parental HPAF-II cells (left panels) and recombinant OX1R/HPAF-II cells (right panels) in the presence (bottom panels) or tabsence (top panels) of orexin-A is illustrated in B.
AsPC-1, SW 1990, HPAF-II and HPAF-II/hOX1R cells (seeded at 5×10^4 cells/well) were grown in 24-well plates for 24 hr under the culture conditions described above. The culture medium was then replaced every 24 hr with fresh medium with or without orexin-A (GL Biochemicals) at a concentration of 1 μM in the presence or absence of the SHP-2 inhibitor, NSC-87877 (50 μM) (Calbiochem, VWR International SAS, France). At the end of the treatment (48 hr), apoptotic cells were determined using the Guava Nexin™ kit (Guava Technologies, Hayward, Calif., USA), which discriminates between apoptotic and non-apoptotic cells (Rouet-Benzineb P, Rouyer-Fessard C, Jarry A, et al. Orexins Acting at Native OX1 Receptor in Colon Cancer and Neuroblastoma Cells or at Recombinant OX1 Receptor Suppress Cell Growth by Inducing Apoptosis. J Biol Chem 2004; 279:45875-86), analyzed with the Guava Personal Cell Analysis (PCA) system (Merck-Millipore, Guyancourt, France), and counted (2,000 events) (Voisin et al, 2008, as above). Results are expressed as the percentage of apoptotic phycoerythrin-labelled Annexin V (Annexin V-PE) positive cells and are the means of 3 independent analyses.

[1] = test system: recombinant HPAF-II/OX1R cells xenografted in nude mice; assay: Tumorigenicity assay: recombinant HPAF-II/OX1R cells xenografted in nude mice; type: in vivo
Protocol: FIG. 8A-C. Effect of daily inoculation of orexin-A on the growth of tumors developed by xenografting OX1R expressing recombinant HPAF-II cells in nude mice. Parental HPAF-II (A) or recombinant OX1R/HPAF-II/cells (B) were inoculated in the flank of nude mice at day 0. Mice were injected daily intraperitoneally with 100 μl of 1 μmoles of orexin-A/Kg solutions starting at day 0 for both cell lines (◯) or day 28 for OX1R/HPAF-II cells (▴) or with 100 μl of PBS ([…]) for controls. The development of tumors was followed by caliper measurement; C. Formalin-fixed xenografted HPAF-II or OX1R/HPAF-II tumors from nude mice intraperitoneally injected daily or not with 1 μmoles/Kg orexin-A were analyzed by cleaved caspase-3 immunostaining. Cleaved caspase-3 positive cells were counted in 10 different fields, each comprising 500 tumoral cells, in the presence (black bars) or absence (white bars) of 50 days orexin-A treatment. Data are the means±SE of 6 tumors in each group; *** p<0.01 versus control.
Control mice received PBS.
After dewaxing, rehydrating tumor paraffin sections, and antigen retrieval by pretreatment with high temperature at pH 9, immunohistochemical procedures were carried out using an automated immunohistochemical stainer according to the manufacturer's guidelines (Bond-Max slide stainer, Menarini, Leica Microsystems). For immunohistochemistry on cell lines, cells in pellets were fixed in formalin, embedded in cell blocks (Shandon Cytoblock; Thermo Scientific; USA) and cut into 3 μm sections. […] OX1R immunostaining was evaluated by two investigators (TV and AC) by calculating a score (0-300) obtained by multiplying the intensity (negative, 0; weak, 1; moderate, 2; and strong, 3) by the percentage of stained cells. The pattern of expression (cytoplasmic, membranous, and nuclear) was also recorded, and a mean score was calculated for each tumor. […] Cleaved caspase-3 immunostaining was determined by calculating the percentage of tumor cells stained in 10 fields of xenografted tumor cells, each field comprising 500 tumor cells.

orexin-A: 33 amino acid hypothalamic neuropeptide, OX1R agonist, SEQ ID NO:2; peptide from GL Biochemicals
induction of apoptosis (parental HPAF-II cells; 48 hr, untransfected parental HPAF-II cells): did not induce apoptosis | annexin-V positive apoptotic cells (parental HPAF-II cells; untransfected cells): 2.1%±0.4 | caspase-3 activation in tumors as compared to tumors from parental HPAF-II cells ([1]; 1 μmoles/Kg daily i.p., 50 days, cleaved caspase-3 positive cells): 3.5 fold | tumor volumes, treatment of established tumors ([1]; orexin-A started after 28 days tumor growth): significant reduction in tumor volumes | inhibition of tumor development ([1]; treated daily with orexin-A from day 0): about 65%
